Results published in the supplement of paper PMC10307832.

How the values were obtained:
Test in all cases: relative viability (nuclei count vs DMSO), 5 days (fraction); higher = more cells survive
Obatoclax + Decitabine = compound: COC1=CC(c2cc3ccccc3[nH]2)=N/C1=C\c1[nH]c(C)cc1C [Obatoclax] + Nc1ncn([C@H]2C[C@H](O)[C@@H](CO)O2)c(=O)n1 [Decitabine] (partner 2 µM)
In short: (§1)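 Each reported value is a median over duplicate plates. It expresses relative viability: treated-well nuclei count divided by vehicle-well nuclei count. Lung cancer cell lines in 1536-well plates were dosed by pin tool a day after seeding, alone with one drug or with a fixed anchor-drug dose plus five library-drug doses (not always all listed) in √10 steps, and nuclei were counted after 5 days.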

[1] = compound: CC1=CC(=NN1)NC2=CC(=NC(=N2)/C=C/C3=CC=CC=C3)N4CCN(CC4)C + CC(=O)c1c(C)c2cnc(Nc3ccc(N4CCNCC4)cn3)nc2n(C2CCCC2)c1=O [Palbociclib] (partner 0.5 µM)
In short: as §1

[2] = compound: CC1=CC(=NN1)NC2=CC(=NC(=N2)/C=C/C3=CC=CC=C3)N4CCN(CC4)C + Nc1ncn([C@H]2C[C@H](O)[C@@H](CO)O2)c(=O)n1 [Decitabine] (partner 2 µM)
In short: as §1

[3] = compound: CC1=CC(=NN1)NC2=CC(=NC(=N2)/C=C/C3=CC=CC=C3)N4CCN(CC4)C + NC(=O)Nc1cc(-c2cccc(F)c2)sc1C(=O)N[C@H]1CCCNC1 [AZD7762] (partner 0.2 µM)
In short: as §1

Cell Line	relative viability (Obatoclax + Decitabine; first compound 0.01 µM)	relative viability (Obatoclax + Decitabine; first compound 0.03162 µM)	relative viability (Obatoclax + Decitabine; first compound 0.1 µM)	relative viability (Obatoclax + Decitabine; first compound 0.3162 µM)	relative viability (Obatoclax + Decitabine; first compound 1 µM)	relative viability ([1]; first compound 0.08 µM)	relative viability ([1]; first compound 0.253 µM)	relative viability ([1]; first compound 0.8 µM)	relative viability ([1]; first compound 2.53 µM)	relative viability ([1]; first compound 8 µM)	relative viability ([2]; first compound 0.08 µM)	relative viability ([2]; first compound 0.253 µM)	relative viability ([2]; first compound 0.8 µM)	relative viability ([2]; first compound 2.53 µM)	relative viability ([2]; first compound 8 µM)	relative viability ([3]; first compound 0.08 µM)	relative viability ([3]; first compound 0.253 µM)	relative viability ([3]; first compound 0.8 µM)	relative viability ([3]; first compound 2.53 µM)	relative viability ([3]; first compound 8 µM)
NCI-H2023	0.216	0.203	0.222	0.159	0.0785	0.406	0.451	0.301	0.111	0.0652	0.22	0.221	0.231	0.0739	0.0699	–	–	–	–	–
NCI-H1666	0.731	0.688	0.68	0.586	0.691	0.684	0.621	0.567	0.638	0.604	0.574	0.682	0.749	0.719	0.584	0.892	0.786	0.811	0.701	0.501
NCI-H1975	0.476	0.365	0.322	0.38	0.278	0.533	0.754	0.593	0.285	0.111	0.377	0.406	0.344	0.314	0.154	0.692	0.872	0.746	0.429	0.174
NCI-H1793	0.578	0.47	0.519	0.421	0.415	0.325	0.374	0.273	0.157	0.144	0.488	0.554	0.43	0.127	0.123	0.412	0.373	0.452	0.129	0.0904
NCI-H1355	0.368	0.347	0.338	0.334	0.335	0.442	0.444	0.387	0.309	0.165	0.305	0.346	0.351	0.356	0.201	0.779	0.802	0.778	0.581	0.15
SW 900	0.438	0.426	0.364	0.402	0.382	0.514	0.542	0.497	0.284	0.12	0.426	0.377	0.413	0.277	0.139	0.534	0.526	0.649	0.314	0.104
A549	0.205	0.122	–	0.282	0.309	–	–	–	–	–	0.21	0.394	0.212	0.104	0.0286	–	–	–	–	–
NCI-H2170	0.47	0.393	0.47	0.453	0.441	0.401	0.396	0.387	0.31	0.144	0.452	0.51	0.467	0.373	0.251	0.875	0.971	0.556	0.243	0.114
EKVX	0.343	–	0.313	0.368	0.324	0.414	0.465	0.362	0.301	0.144	0.299	0.297	0.374	0.331	0.152	0.649	0.667	0.753	0.413	0.122
RERF-LC-KJ	0.693	0.632	0.643	0.613	0.291	1.03	1.15	0.92	0.647	0.336	0.73	0.677	0.695	0.272	0.242	0.854	1.05	0.915	0.651	0.232
NCI-H1755	0.684	0.617	0.697	0.655	0.662	0.413	0.433	0.466	0.382	0.325	0.707	0.65	0.733	0.663	0.428	0.448	0.471	0.396	0.296	0.184
NCI-H661	0.539	0.532	0.594	0.558	0.489	0.4	0.41	0.404	0.27	0.269	0.551	0.529	0.524	0.302	0.249	–	–	–	–	–
LOU-NH91	0.743	0.833	0.728	0.758	0.606	0.55	0.516	0.5	0.56	0.407	0.793	0.856	0.807	0.809	0.473	0.782	0.834	0.733	0.518	0.336
LXF-289	0.346	0.385	0.372	0.342	0.408	0.632	0.63	0.602	0.568	0.304	0.371	0.383	0.324	0.288	0.248	1.06	1.11	1.04	0.685	0.102
HCC-44	0.968	0.643	0.966	0.902	0.84	0.984	0.946	0.952	1.01	0.644	0.967	0.965	0.909	0.87	0.845	1.02	1.03	1.01	1.01	0.844
HARA	0.52	0.593	0.528	0.462	0.405	0.296	0.31	0.266	0.174	0.103	0.529	0.641	0.569	0.192	0.132	0.386	0.351	0.412	0.193	0.154
201T	0.814	0.731	0.868	0.857	0.92	0.345	0.358	0.359	0.33	0.197	0.834	0.864	0.831	0.785	0.471	0.667	0.526	0.628	0.538	0.53
